Assay results from patent publication US7138543B2, “Thiolalkyl benzoic acid derivatives” (Guilford Pharmaceuticals Inc., priority 2001, dated 2006).

Legend:
STZ-diabetic rats = experiment: Diabetic neuropathy in STZ model (motor and sensory nerve conduction velocity); type: in vivo
Description: In vivo Assay of NAALADase Inhibitors on Diabetic Neuropathy in STZ Model
Motor and sensory nerve conduction velocity was also measured in STZ-diabetic animals after 4, 8 and 12 weeks of treatment (see De Koning et al., supra, for a description of the experimental method). Briefly, stimulating needle electrodes were inserted close to the sciatic and tibial nerves with recording electrodes being placed subcutaneously over the distal foot muscles, in anesthetized rats.

[1] = tested on: rats with unilaterally transected optic nerve; experiment: Optic nerve transection (optic nerve fiber counting); type: in vivo, Rattus norvegicus; details: for FIBER NUMBER: 10 mg/kg daily intraperitoneal
Description: (§1) All experiments complied with the Association for Research in Vision and Ophthalmology Statement for the Use of Animals in Ophthalmic and Vision Research. 82 male Brown Norway rats (Rattus norvegicus), each weighing approximately 250 gm, were treated using procedures approved by the Animal Care Committee of the Johns Hopkins University School of Medicine. The rats were housed with a 12 hour light/12 hour dark cycle and fed ad libitum.
OPTIC NERVE TRANSECTION: The optic nerve was transected unilaterally in 26 rats under intraperitoneal pentobarbital anesthesia. The conjunctiva was opened with scissors and the optic nerve exposed by traction on extraocular muscles. The transection was performed with microscissors 5 mm posterior to the globe, with specific attention to avoidance of injury to major ocular blood vessels. Immediately after transection, the retina was examined ophthalmoscopically to assure that the retinal arterial blood supply was not disrupted. The conjunctiva was closed with absorbable suture and the eye dressed with antibiotic ointment. Beginning on the day of transection, the rats were treated daily with intraperitoneal injections of either a vehicle (9 rats with 50 mM HEPES-buffered saline) or a NAALADase inhibitor (8 rats with 10 mg/kg of Compound A and 9 rats with 10 mg/kg of Compound B). 5 saline treated rats, 3 Compound A treated rats, and 4 Compound B treated rats were sacrificed at 2 weeks, and the remaining rats at 4 weeks, after transection.
(§2) OPTIC NERVE COUNTING: The rats were sacrificed by exsanguination under deep pentobarbital anesthesia. They were perfused through the heart with 2% paraformaldehyde/2% glutaraldehyde in 0.1 M phosphate buffer, pH 7.2, and the eyes with attached optic nerves were removed. A cross-section of the optic nerve from both experimental (glaucoma or transection) and control eyes was removed 1.5 mm posterior to the globe, 1 mm in thickness, and post-fixed in 2% osmium tetroxide in buffer. These were processed into epoxy resin, sectioned at 1 micron and stained with toluidine blue.
(§3) The area of the optic nerve cross-section was measured by outlining its outer border at 10× magnification on an image analysis system (Universal Imaging Corp., Westchester, Pa.) with Synsys digital camera and Metamorph software. Three area measurements were taken and the mean value was determined. To measure the density and fiber diameter distributions, images were captured with a 100× phase contrast objective from 10 different areas of each nerve. These were edited to eliminate non-neural objects and the size of each axon internal to the myelin sheath (its minimum diameter) and the density of axons/square mm were calculated for each image and nerve. The mean density was multiplied by total nerve area to yield fiber number for each nerve. The total fiber number in glaucoma or transection nerves was compared to the normal, fellow eye of each rat to yield a percent loss value. The number of axons counted among the 10 images was an approximately 20% sample of the 80–90,000 axons in normal rat nerves. The person measuring axon number was masked to the protocol conducted on the nerves.

BB/W diabetic rats = experiment: Nerve conduction velocity in BB/W model; type: in vivo; details: 10 mg/kg daily; vs diabetic vehicle controls, from 8 weeks to six months, FIG. 12
Source text: Male BB/W rats (BRI, Mass) spontaneously develop a cell mediated autoimmune destruction of pancreatic B cells, resulting in onset of insulin-dependent (Type I) diabetes (Awata, Guberski, Endocrinology (1995) 136(12):5731–5). […] This renders them valuable for experimental trials of new compounds for future treatments of this major disorder. In the present study, Compound A and Compound D were examined for their ability to alter the progression of diabetic neuropathy. The rats received daily injection of Compound A or Compound D (10 mg/kg i.p.) or vehicle, starting at the onset of diabetes (hyperglycemia) and up to 6 months thereafter. Another group of non-diabetic rats also receiving vehicle were tested. All animals were continuously monitored for body weight, urine volume, blood sugar and glycated haemoglobin. In the first month of the study, all animals were tested for thermal nociception in a Hargreaves apparatus, weekly. After the first month this was done biweekly and then monthly. […]
Nerve conduction velocity was also measured every two weeks through the first eight weeks of treatment and every month thereafter through to the six months of treatment (see De Koning et al., Peptides, Vol. 8, No. 3, pp. 415–22 (1987) for a description of the experimental method). […]

transgenic G1H mice = experiment: Onset of ALS in transgenic mice model of FALS; type: in vivo; details: for DISEASE ONSET: 50 mg/kg daily intraperitoneal
Description: Effect of NAALADase Inhibitors on Onset of ALS
The effect of NAALADase inhibitors on the onset of ALS was tested using the transgenic mice model of familial amyotrophic lateral sclerosis (“FALS”), which is detailed in Gurney, M., Annals of Neurology (1996) 39:147–157, and otherwise well known in the art. One month old transgenic G1H mice were treated with daily intraperitoneal injections of a vehicle (50 mM HEPES-buffered saline) or a NAALADase inhibitor (50 mg/kg Compound A). Clinical symptoms of the mice were monitored daily. The onset of clinical disease was scored by examining each mouse for its shaking of limbs when suspended in the air by its tail, cross spread of spinal reflexes, hindlimb paralysis, body weight and wheel running activity.

[2] = tested on: rats with unilateral elevation of intraocular pressure; experiment: Experimental rat glaucoma (IOP elevation, optic nerve fiber counting); type: in vivo; details: 8 week group
Description: Protective Effect of NAALADase Inhibitors in Experimental Rat Glaucoma
as §1
EXPERIMENTAL GLAUCOMA: Unilateral elevation of intraocular pressure (“IOP”) was produced in 56 rats by microinjection of hypertonic saline into episcleral veins, following procedures described in Morrison, J. et al., IOVS (March 1998) 39:526–531. Beginning on the day of IOP elevation, the rats were treated daily with intraperitoneal injections of either a vehicle (23 rats with 50 mM HEPES-buffered saline) or a NAALADase inhibitor (11 rats with 10 mg/kg of Compound A and 22 rats with 10 mg/kg of Compound B). 11 saline treated rats, 11 Compound A treated rats and 11 Compound B treated rats were sacrificed at 8 weeks, and the remaining rats at 12 weeks, after initial IOP elevation.
as §2, §3

[3] = 2 weeks survival after transection
[4] = 4 weeks survival after transection

O=C(O)CCC(CP(=O)(O)Cc1c(F)c(F)c(F)c(F)c1F)C(=O)O (stereo not drawn) [Compound A]
motor and sensory nerve conduction velocities (STZ-diabetic rats; 10 mg/kg daily for 4, 8 and 12 weeks, FIGS. 9A and 9B): tended to improve (increase) both motor and sensory nerve conduction velocities
treatment time at which significant improvement of motor nerve conduction velocity was observed (STZ-diabetic rats; 10 mg/kg daily, FIG. 9A): 12 weeks
treatment time at which significant improvement of sensory nerve conduction velocity was observed (STZ-diabetic rats; 10 mg/kg daily, FIG. 9B): 8 weeks
remaining axons relative to the saline-treated rats ([1]; 2 weeks after transection): 3 times
PERCENT DIFFERENCE in fiber number [1, 3]: 65.3 ± 30.9%
FIBER NUMBER [1, 3]: 26,426 ± 23,025
PERCENT DIFFERENCE in fiber number [1, 4]: 82.4 ± 8.9%
FIBER NUMBER [1, 4]: 13,599 ± 7,868
nerve conduction velocity (BB/W diabetic rats): significantly less severe nerve conduction deficits
DIFFERENCE in disease onset vs vehicle (transgenic G1H mice; Study 1): 32
DISEASE ONSET (transgenic G1H mice; Study 1): 221 days
DIFFERENCE in disease onset vs vehicle (transgenic G1H mice; Study 2): 25
DISEASE ONSET (transgenic G1H mice; Study 2): 166 days
FIBER NUMBER ([2]; 10 mg/kg daily intraperitoneal): 79156 ± 2436
PERCENT DIFFERENCE in fiber number between glaucoma and normal eye ([2]; positive value indicates fewer fibers in the glaucoma eye): −1.82 ± 2.92%
